# Experimental data taken from US5043328A, “Formulations containing unsaturated fatty acids for the synthesis of prostaglandins and hydroxy-fatty acids in biological systems” (priority 1986, dated 1991).
# Like-named read-outs stand apart in the source and are kept apart here.
# Key:
# [1] = biological target: T1, enzyme (from seminal vesicles of sheep) (Ovis aries, UniProt P05979); conditions: for relative total prostaglandin f: seminal vesicle enzyme, 10 min, pH 8
# T1 sequence (P05979 25-600): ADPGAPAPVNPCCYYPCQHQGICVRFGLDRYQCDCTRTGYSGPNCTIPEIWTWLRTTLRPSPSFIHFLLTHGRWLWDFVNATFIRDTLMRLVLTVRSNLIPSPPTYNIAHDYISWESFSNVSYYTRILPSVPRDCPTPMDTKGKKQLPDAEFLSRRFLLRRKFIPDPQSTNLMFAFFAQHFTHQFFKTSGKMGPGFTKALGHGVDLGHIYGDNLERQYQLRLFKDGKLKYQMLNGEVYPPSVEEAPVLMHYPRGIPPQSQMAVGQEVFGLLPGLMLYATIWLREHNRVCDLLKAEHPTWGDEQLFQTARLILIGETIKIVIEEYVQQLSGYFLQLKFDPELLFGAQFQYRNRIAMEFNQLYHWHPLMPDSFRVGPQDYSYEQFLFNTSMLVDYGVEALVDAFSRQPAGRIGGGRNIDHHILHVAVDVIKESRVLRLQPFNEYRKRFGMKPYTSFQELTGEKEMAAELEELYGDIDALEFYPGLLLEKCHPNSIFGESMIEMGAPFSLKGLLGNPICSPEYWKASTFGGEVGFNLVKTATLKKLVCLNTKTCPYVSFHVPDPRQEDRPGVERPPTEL
# Protocol: Method 2: Prostaglandin Synthesis
# 0.3 ml of 0.03M potassium phosphate buffer of pH=8.0 contains 0.5 mg of enzyme (from seminal vesicles of sheep) (Biochemistry 10 (1971) 2372) or homogenate of the inner kidney medulla (Life Sciences 26 (1980) 765), 2.75 μg of ^14 C-arachidonic acid (0.5 μCi) and 0.5 mg of stimulator, and, if appropriate, 0.5 mg of stabilizer substance (see Table 1). After 10 minutes' incubation at 37° C., the reaction is stopped with 0.05 ml of 1.2M citric acid and the mixture is extracted with twice 0.5 ml of ethyl acetate, the combined extracts are freed of solvent, and the residue is dissolved in 0.2 ml of methanol, diluted 1:1 with water and separated by HPLC (nucleosil C-18 column, 125×4.6 mm, from Bischoff, Leonberg, Germany, solvent 300 ml of acetonitrile, 700 ml of water and 1 ml of glacial acetic acid and after 30 minutes pure methanol). The separation of the radioactive fractions is followed by a monitor (LB 504 from Berthold, Wildbad, Germany). The products formed, such as 6-keto-prostaglandin F2alpha, prostaglandin E2, prostaglandin F2alpha and prostaglandin D2, are separated under these conditions.
# The prostaglandins PGE2, PGF2 alpha and PGD2 as products from arachidonic acid where quantified by means of method 2, and the sum was related as "total prostaglandin" to 100%. The quantity of "total prostaglandin" formed without the addition of a stimulator was set at f=1; the quantity formed after stimulation was related thereto. f=2 or f=3 therefore means twice or three times the stimulation under the conditions of method 2. The stability of the sample was investigated by means of method 1 (right-hand column). […] Values greater than 25-28% therefore represent a stabilization, and values smaller than 25-28% represent a destabilization. Example No. 1 was carried out without a stimulator. […] The substances test with respect to stabilization (see Method 1 for quantities) were: A) aqueous solution without stabilizer addition, B) ethanolic solution without further addition, C) pyridine solution, D) with rutin, predissolved in dimethyl sulfoxide, dimethyl sulfoxide then stripped off, E) like B) with lecithin, ethanol stripped off, F) like A) with cytochrome c from horse heart (from Boehringer, Mannheim, Germany), G) like A) with methemoglobin (human) (from Sigman, Munich, Germany), H) like A) with bovine serum albumin (from Calbiochem, Frankfurt, Germany), J) like A) or B), but solvent stripped off, K) like J) with cytochrome c, L) like J) with hemoglobin (human) (from Behringwerke, Marburg, Germany), and M) like J) with human serum albumin (from Behringwerke, Marburg, Germany).
# [2] = for Stability (% of remaining arachidonic acid by Method 1): 24 h 37° C.; for Stability (% remaining fatty acid by Method 1) / Stabilization (% remaining unsaturated fatty acid by Method 1): 1440 min; for undesired decomposition / byproducts of polyunsaturated fatty acid (arachidonic acid) with added stimulator: aqueous medium, result in words
# Protocol: Method 1: Investigation of the Stability of Unsaturated Fatty Acids in the Formulations
# The stabilizing action of substances on polyunsaturated fatty acids was investigated as follows:
# Test A for Water-Soluble Substances:
# 0.125 mg of unsaturated fatty acid or Na salt (see tables) (sodium arachidonate, from Sigma, Munich, Germany) is dissolved in 0.05 ml of water. 0.2 ml of aqueous solution which contains 2 mg of stabilizer and can additionally contain 2 mg of stimulator is mixed in (cf. Table 1), 0.1 ml is then taken out immediately, extracted and analysed (see below). Further processing according to modification 1 or 2.
# Modification 1 for Aqueous Solutions
# After 24 hours incubation at 37° C., 0.1 ml is again taken, extracted and analysed (see below).
# Modification 2 for Solid Mixtures (Lyophilisates)
# The test solution is lyophilized, the lyophilisate is incubated for 24 hours at 37° C. and then dissolved again in the previous quantity of water, and 0.1 ml is taken, extracted and analysed (see below).
# Test B for Water-Insoluble Substances:
# 0.125 mg of unsaturated fatty acid (arachidonic acid, 5,8,11,14,17-eicosapentaenoic acid or 8,11,14-eicosatrienoic acid, from Sigma, Munich) is dissolved in 0.05 ml of ethanol or dimethyl sulfoxide. 0.2 ml of ethanol (or dimethyl sulfoxide) which contains 2 mg of stabilizer and can additionally contain 2 mg of the stimulator (cf. Table 1) is added thereto, and 0.1 ml is taken immediately and, as below, extracted and analysed. Further treatment according to modification 1 or 2.
# Modification 1 for Solutions
# After 24 hours' incubation at 37° C., 0.1 ml is again taken, mixed with 0.1 ml of water, extracted and analysed.
# Modification 2 for Solid Mixtures
# The remaining solution is freed of solvent, incubated for 24 hours at 37° C. and then dissolved again in 0.15 ml of solvent, and 0.1 ml is taken, mixed with 0.1 ml of water, extracted and analysed.
# 0.05 ml of 1.2M aqueous citric acid solution is added to the samples obtained, and the samples are extracted with twice 0.5 ml of ethyl acetate, the ethyl acetate is removed from the combined extracts and the residue is dissolved in 0.8 ml of methanol and analysed by means of high-pressure liquid chromatography (HPLC) (Rad Pak C-18 column, 100×8 mm, from Waters, Konigstein, Germany, 1.5 ml/minute, solvent 800 ml of methanol, 200 ml of water and 0.1 ml of glacial acetic acid). The separation is monitored with a commercially available UV detector at 206 nm.
# The prostaglandins PGE2, PGF2 alpha and PGD2 as products from arachidonic acid where quantified by means of method 2, and the sum was related as "total prostaglandin" to 100%. The quantity of "total prostaglandin" formed without the addition of a stimulator was set at f=1; the quantity formed after stimulation was related thereto. f=2 or f=3 therefore means twice or three times the stimulation under the conditions of method 2. The stability of the sample was investigated by means of method 1 (right-hand column). […] Values greater than 25-28% therefore represent a stabilization, and values smaller than 25-28% represent a destabilization. Example No. 1 was carried out without a stimulator.
# [3] = Table 1, share of total prostaglandin (=100%)
# [4] = A) aqueous solution without stabilizer addition
# [5] = B) ethanolic solution without further addition
# [6] = J) like A) or B), but solvent stripped off
# [7] = M) like J) with human serum albumin
# [8] = H) like A) with bovine serum albumin
# [9] = D) with rutin, predissolved in dimethyl sulfoxide, dimethyl sulfoxide then stripped off
# [10] = G) like A) with methemoglobin (human)
# [11] = F) like A) with cytochrome c from horse heart
# [12] = L) like J) with hemoglobin (human)
# [13] = Table 2, share of total prostaglandin
SMILES,"PGD2 % [1, 3] [%]","PGE2 % [1, 3] [%]","PGF2alpha % [1, 3] [%]","Stability (% of remaining arachidonic acid by Method 1) [2, 4] [%]","Stability (% of remaining arachidonic acid by Method 1) [2, 5] [%]","Stability (% of remaining arachidonic acid by Method 1) [2, 8] [%]",relative total prostaglandin f [1],other results
NC(Cc1ccc(O)cc1)C(=O)O (stereo not shown) [Example 6],17,81,2,91,100,,,"Stability (% of remaining arachidonic acid by Method 1) ([2]; C) pyridine solution): 67%; Stability (% of remaining arachidonic acid by Method 1) [2, 6]: 98%; Stability (% of remaining arachidonic acid by Method 1) ([2]; K) like J) with cytochrome c): 100%; Stability (% of remaining arachidonic acid by Method 1) [2, 7]: 100%"
NCCc1ccc(O)c(O)c1 [Example 10],13,52,35,17,95,100,,"Stability (% of remaining arachidonic acid by Method 1) ([2]; C) pyridine solution): 9%; Stability (% of remaining arachidonic acid by Method 1) ([2]; K) like J) with cytochrome c): 98%; Stability (% of remaining arachidonic acid by Method 1) [2, 7]: 100%"
CC(=O)NC(Cc1ccc(O)cc1)C(N)=O (stereo not shown) [Example 11],,,,,,,,"Stimulation ([1]; Table 1, result in words): positive; Stabilization [2]: positive"
O=C(O)C=Cc1ccc(O)c(O)c1 [Example 17],17,70,13,19,,99,5.7,"Stability (% of remaining arachidonic acid by Method 1) [2, 9]: 99%; Stability (% of remaining arachidonic acid by Method 1) [2, 10]: 95%; Stability (% of remaining arachidonic acid by Method 1) [2, 6]: 16%; Stability (% of remaining arachidonic acid by Method 1) [2, 7]: 98%"
O=C(O)CCc1c[nH]c2ccc(O)cc12 [Example 21],17,80,3,,,,5.7,Stability (% remaining fatty acid by Method 1) [2]: 96%
NCCc1c[nH]c2ccc(O)cc12 [Example 22],20,75,5,16,99,,10.6,"Stability (% of remaining arachidonic acid by Method 1) ([2]; E) like B) with lecithin, ethanol stripped off): 96%; Stability (% of remaining arachidonic acid by Method 1) [2, 11]: 98%; Stability (% of remaining arachidonic acid by Method 1) ([2]; K) like J) with cytochrome c): 98%; Stability (% of remaining arachidonic acid by Method 1) [2, 12]: 100%"
NCCc1c[nH]c2ccccc12 [Example 23],16,81,3,20,,100,,"Stability (% of remaining arachidonic acid by Method 1) [2, 9]: 100%; Stability (% of remaining arachidonic acid by Method 1) [2, 11]: 98%; Stability (% of remaining arachidonic acid by Method 1) [2, 10]: 97%"
"O=C1N[C@@H](Cc2c[nH]c3ccccc23)C(=O)N[C@H]1Cc1ccc(O)cc1 [Example 32, Cyclo-TrpTyr]",,,,,,,,"Stimulation ([1]; Table 1, result in words): positive; Stabilization [2]: positive"
"N[C@@H](CS)C(=O)O [Example 33, L-cysteine]",27,56,17,,,,,Stability (% remaining fatty acid by Method 1) [2]: 94%
"N[C@@H](CCC(=O)N[C@@H](CS)C(=O)NCC(=O)O)C(=O)O [Example 35, Glutathione]",0,100,0,0,80,91,13.5,"Stability (% of remaining arachidonic acid by Method 1) ([2]; C) pyridine solution): 0%; Stability (% of remaining arachidonic acid by Method 1) [2, 6]: 0%; Stability (% of remaining arachidonic acid by Method 1) [2, 12]: 92%; undesired decomposition / byproducts of polyunsaturated fatty acid (arachidonic acid) with added stimulator [2]: markedly greater quantity"
"O=C(O)CCCCC1CCSS1 (stereo not shown) [Example 36, Lipoic acid]",8,43,49,,,,,"stimulation of prostaglandin synthesis with much smaller quantities of undesired byproducts ([1]; mixtures with polyunsaturated fatty acids such as arachidonic acid, result in words): stimulated; undesired decomposition / byproducts of polyunsaturated fatty acid (arachidonic acid) with added stimulator [2]: fully suppressed"
"COC1=C(OC)C(=O)C(C/C=C(\C)CC/C=C(\C)CC/C=C(\C)CC/C=C(\C)CC/C=C(\C)CC/C=C(\C)CC/C=C(\C)CC/C=C(\C)CC/C=C(\C)CCC=C(C)C)=C(C)C1=O [Example 47, Vitamin Q10, reference compound]",,,,,,,0.8,"PGD2 % [1, 13]: 14%; PGE2 % [1, 13]: 8%; PGF2alpha % [1, 13]: 78%; Stabilization (% remaining unsaturated fatty acid by Method 1) [2]: 8%"
"O=C(CCc1ccc(O)cc1)c1c(O)cc(O)cc1O[C@@H]1O[C@H](CO)[C@@H](O)[C@H](O)[C@H]1O [Example 53, Phlorizin]",,,,,,,3,"PGD2 % [1, 13]: 18%; PGE2 % [1, 13]: 80%; PGF2alpha % [1, 13]: 2%; Stabilization (% remaining unsaturated fatty acid by Method 1) [2]: 97%"
